Where a name gives a salt, the structure may show the parent alone. Read-outs that look alike come from different tables or passages of the source.
Assays:
[1] = system: heart rate increase elicited by isoproterenol in the pentobarbitalized dog; assay: β-adrenergic blocking activity in the pentobarbitalized dog; assay type: in vivo; settings: for ED50 / inhibition at 0.1 mg/kg / inhibition at 1 mg/kg: Canis lupus familiaris; for ED50 / Adrenergic Activity Dog β-blockade AED50: approximate intravenous dose causing 50% inhibition of isoproterenol-elicited heart rate increase; for ED50: read-out: Adrenergic Activity Dog β-blockade AED50; for inhibition at 0.1 mg/kg: 0.1 mg./kg. intravenous; for inhibition at 0.1 mg/kg / inhibition at 1 mg/kg: read-out: Actual percentage inhibition of heart rate increase above control level at the indicated dose; for inhibition at 1 mg/kg: 1.0 mg./kg. intravenous
Method: The β-adrenergic blocking activity was determined in the pentobarbitalized dog as judged by the ability of the test compound to inhibit the elevation is heart rate elicited by a 0.5 mcg./kg. i.v. injection of isoproterenol.
^e AED50 = approximate intravenous dose required to cause 50%
inhibition of the heart rate increase elicited by isoproterenol in the
^h Actual percentage inhibition of heart rate increase above control
level observed at the indicated dose.

[2] = system: hind limb vasculature of the anesthetized dog; assay: Vasodilator activity, dog-leg perfusion; assay type: in vivo; settings: approximate intraarterial dose causing 50% reduction in perfusion pressure in hind limb; for ED50: Canis lupus familiaris, read-out: Vasodilator Activity Dog-Leg Perfusion AED50
Source text: (§1) Vasodilator activity was judged on the basis of observed reduction in perfusion pressure in the hind limb vasculature of the anesthetized dog determined according to the procedure described by Jandhyala et al., European J. Pharm. 17, 357 (1972), and also on the basis of percent reduction in perfusion pressure as measured in the isolated rabbit ear artery according to the method described by De LaLande et al., Aust. J. Exp. Biol. Med. Sci. 43, 639 (1965).
^c AED50 =approximate intraarterial dose required to cause a 50%
reduction in perfusion pressure in the hind limb of the anesthetized dog.

[3] = system: unanesthetized spontaneous hypertensive rat; assay: Antihypertensive activity, single oral medication in the spontaneous hypertensive rat (SH Rat); assay type: in vivo; settings: for ED (40 mm Hg): Rattus norvegicus, single oral dose required to induce a 40 mm average reduction in systolic blood pressure, read-out: Antihypertensive Activity SH Rat AHD40 mg./kg. P.O.; for Actual reduction in blood pressure observed at the indicated dose: SH rat; for lower blood pressure: at 50 mg./kg.
Method: Antihypertensive activity was determined on the basis of the observed reduction in systolic blood pressure measured according to the method of H. Kersten et al., J. Lab. and Clin. Med. 32, 1090 (1947) following a single oral medication in the unanesthetized spontaneous hypertensive rat described by Okamato et al., Japan Circulation J. 27, 282 (1963).
^a AHD40 = single oral dose required to induce a 40 mm average
reduction in systolic blood pressure in the unanesthetized spontaneous
^f Actual reduction in blood pressure (in mm Hg) observed at the […]

[4] = system: isolated rabbit ear artery; assay: Vasodilator activity, isolated rabbit ear artery perfusion pressure; settings: Oryctolagus cuniculus, read-out: Rabbit Ear Artery vasodilation (percentage reduction in perfusion pressure); for inhibition at 10 µM: 1 × 10^-5 M; for inhibition at 20 µM: 2 × 10^-5 M; for inhibition at 50 µM: 5 × 10^-5 M
Source text: as §1
^d Vasodilation is expressed as the percentage reduction in perfusion
pressure from the control level at the indicated molar dose.

[5] = system: histamine-induced bronchoconstriction in the dog; assay: Block of histamine-induced bronchoconstriction in the dog (β-adrenergic stimulant activity); assay type: in vivo
[6] = system: unanesthetized trained renal hypertensive dog; assay: Antihypertensive activity, repeated oral medication in the renal hypertensive dog; assay type: in vivo; settings: for minimal effective dose: Canis lupus familiaris, minimum repeated oral daily dose for sustained lowering of blood pressure of 10% or greater, tid, read-out: Antihypertensive Activity Renal Hypertensive Dog MED10 mg./kg. tid
Source text: Antihypertensive activity was also judged on the basis of sustained reduction of blood pressure observed in the unanesthetized trained renal hypertensive dog following repeated oral medication according to the procedure described by Lape et al., Arch. Int. Pharmacodyn. 160, 342 (1966).
^b MED10 = minimum repeated oral daily dose required to effect a
sustained lowering of blood pressure of 10% or greater in the
unanesthetized trained renal hypertensive dog.
^g Actual precentage reduction in blood pressure observed at the […]

[7] = system: ouabain-induced arrhythmia in dogs; assay: Ouabain-induced arrhythmia conversion
Method: The latter was determined in vivo and efficacy was judged on the ability of the test compound to convert to normal rhythm the arrhythmia induced by barium ion or ouabain intoxication.
Adult mongrel dogs of either sex, after fasting for 16 to 20 hours, were anesthetized with 35 mg./kg. Na-pentobarbital i.v. and tied supine on an operating table. A patent airway was provided by inserting an endotracheal cannula, and the animal respired spontaneously. A femoral vein was double cannulated with one cannula for injection and the other as a site for ouabain infusion. The ipsilateral femoral artery was cannulated for blood pressure measurement. Na-pentobarbital supplements were given i.v. as needed.
Statham P23A blood pressure transducers were used to measure blood pressure, and electrocardiograms (lead II or V1) were taken with monopolar pin electrodes. Both parameters were printed out on a Grass polygraph. Each dog was given 36 mcg./kg. ouabain i.v. over 1 minute (the solution contained 50 mcg./ml. ouabain in isotonic saline) followed by a constant ouabain infusion (0.6 mcg./kg./min.) starting 5 minutes later. The infusion solution was prepared so that the appropriate dose per minute was delivered in 0.5 ml. […]
All ECG interval and duration measurements were made on lead II with a chart speed of 100 mm./sec. […] Blood pressure was measured using a sensitivity of 10 mm. […]

## COc1ccc(CCC(C)NCC(O)c2ccc(O)c(SC)c2)cc1 (single isomer, unassigned) [Example 13A]
[1]; iv
  ED50: > 0.1 mg/kg
[1]
  inhibition at 0.1 mg/kg: 14%
[2]
  ED50: 0.5 mg/kg

## COc1ccc(CCC(C)NCC(O)c2ccc(O)c(SC)c2)cc1 (single isomer, unassigned) [Example 13B]
[1]
  Adrenergic Activity Dog β-blockade AED50: 0.1 mg/kg
[2]
  Vasodilator Activity Dog-Leg Perfusion AED50: 0.5 mg/kg

## CSc1cc(C(O)CNC(C)CCc2ccc(O)cc2)ccc1O (single isomer, unassigned) [Example 40B, 4-hydroxy-α-<{[3-(4-hydroxyphenyl)-1-methylpropyl]amino}-methyl>-3-(methylthio)benzenemethanol cyclohexanesulfamate]
[1]; iv
  ED50: 0.1 mg/kg
[3]
  ED (40 mm Hg): > 50 mg/kg
[3]; 50.0 mg./kg. P.O.
  Actual reduction in blood pressure observed at the indicated dose: -9 mm Hg

## COc1ccc(CC(C)NCC(O)c2ccc(OC(C)=O)c(SC)c2)cc1 (stereo not drawn) [Example 2, 4-hydroxy-α-<{[2-(4-methoxyphenyl-1-methylethyl]amino}methyl>-3-(methylthio)benzenemethanol 4-aceetate hydrochloride]
[4]
  inhibition at 10 µM: 50%
[5]
  β-adrenergic stimulant activity: ability to block histamine-induced bronchoconstriction
[1]
  inhibition at 1 mg/kg: 60%
  ED50: < 1 mg/kg
[2]
  ED50: 0.5 mg/kg
[3]
  ED (40 mm Hg): 10 mg/kg

## COc1ccc(CC(C)NCC(O)c2ccc(O)c(SC)c2)cc1 (stereo not drawn) [Example 3, 4-hydroxy-α-<{[2-(4-methoxyphenyl)-1-methylethyl]amino}methyl>-3-(methylthio)benzenemethanol acetate salt]
[4]
  inhibition at 20 µM: 56%
[1]
  ED50: 0.1 mg/kg
[2]
  ED50: 0.5 mg/kg
[3]
  ED (40 mm Hg): 20 mg/kg

## COc1ccc(CCC(C)NCC(O)c2ccc(O)c(SC)c2)cc1 (stereo not drawn) [Example 5, 4-hydroxy-α-<{[3-(4-methoxyphenyl)-1-methylpropyl]amino}methyl>-3-(methylthio)benzenemethanol acetate salt]
[4]; 1 × 10^-4 M
  inhibition at 100 µM: 55%
[1]; iv
  ED50: 0.1 mg/kg
[2]
  ED50: 0.5 mg/kg
[6]
  minimal effective dose: > 2.5 mg/kg
[6]; renal hypertensive dog, 2.5 mg./kg. tid
  Actual percentage reduction in blood pressure observed at the indicated dose: 0%
[3]
  ED (40 mm Hg): 15 mg/kg
[3]; at a dose of 15 mg./kg.
  lowers blood pressure: 40 mm
[3]; at less than one-third the dose of Reference Compounds I and II
  potency relative to the reference compounds: twice as potent

## COc1ccc(CCC(C)NCC(O)c2ccc(O)c(SC)c2)cc1 (stereo not drawn) [Example 12B, 4-hydroxy-α-<{[3-(4-methoxyphenyl)-1-methylpropyl]amino}methyl>3-(methylthio)benzenemethanol acetate salt]
[1]
  inhibition at 0.1 mg/kg: 45%
[1]; acetate salt
  Adrenergic Activity Dog β-blockade AED50: > 0.1 mg/kg

## COc1ccc(CCC(C)NCC(O)c2ccc(O)c(SC)c2)cc1 (stereo not drawn) [Example 12C, 4-hydroxy-α<{[3-(4-methoxyphenyl)-1-methylpropyl]amino}methyl>-3-(methylthio)benzenemethanol acetate salt]
[1]; acetate salt
  Adrenergic Activity Dog β-blockade AED50: ~0.10 mg/kg

## COc1ccc(CCC(C)NCC(O)c2ccc(OC(=O)c3ccccc3)c(SC)c2)cc1 (stereo not drawn) [Example 15A, 4-hydroxy-α-<{[3-(4-methoxyphenyl)-1-methylpropyl]amino}methyl>-3-(methylthio)benzenemethanol 4-benzoate acetate salt]
[3]
  ED (40 mm Hg): > 50 mg/kg
[3]; 50.0 mg./kg. P.O.
  Actual reduction in blood pressure observed at the indicated dose: -10 mm Hg

## CC(=O)O.CSc1cc(C(O)CNC(C)(C)Cc2ccccc2)ccc1O (stereo not drawn) [Example 20, α-{[(1,1-dimethyl-2-phenylethyl)amino]methyl}-4-hydroxy-3-(methylthio)benzenemethanol acetate salt]
[4]
  inhibition at 10 µM: 71%
[1]
  inhibition at 1 mg/kg: 56%
  ED50: < 1 mg/kg
[2]
  ED50: 0.5 mg/kg
[3]
  ED (40 mm Hg): ~50 mg/kg

## CSc1cc(C(O)CNC(C)Cc2ccccc2)ccc1O (stereo not drawn) [Example 22, 4-hydroxy-α-{[(1-methyl-3-phenylethyl)amino]methyl}-3-(methylthio)benzenemethanol acetate salt]
[4]
  inhibition at 20 µM: 33%
[1]
  inhibition at 1 mg/kg: 60%
  ED50: < 1 mg/kg
[2]
  ED50: 0.5 mg/kg
[3]
  ED (40 mm Hg): 35 mg/kg

## COc1ccc(CC(C)NC(C)C(O)c2ccc(O)c(SC)c2)cc1 (stereo not drawn) [Example 24, 4-hydroxy-α-<{[2-(4-methoxyphenyl)-1-methylethyl]amino}ethyl>-3-(methylthio)benzenemethanol acetate salt]
[3]
  ED (40 mm Hg): > 20 mg/kg
[3]; 20.0 mg./kg. P.O.
  Actual reduction in blood pressure observed at the indicated dose: -23 mm Hg

## CC(=O)O.CSc1cc(C(O)CNC(C)(C)CCc2ccccc2)ccc1O (stereo not drawn) [Example 28, α-{[(1,1-dimethyl-3-phenylpropyl)amino]methyl}-4-hydroxy-3-(methylthio)benzenemethanol acetate salt]
[4]
  inhibition at 50 µM: 70%
[1]; iv
  ED50: < 1 mg/kg
[1]
  inhibition at 1 mg/kg: 100%
[2]
  ED50: 0.5 mg/kg
[3]
  ED (40 mm Hg): ~10 mg/kg

## COc1ccc(CCC(C)(C)NCC(O)c2ccc(O)c(SC)c2)cc1 (stereo not drawn) [Example 30, α-<{[1,1-dimethyl-3-(4-methoxyphenyl)propyl]amino}methyl>-4-hydroxy-3-(methylthio)benzenemethanol acetate salt]
[4]; 9 × 10^-5 M
  inhibition at 90 µM: 50%
[1]; iv
  ED50: < 1 mg/kg
[1]
  inhibition at 1 mg/kg: 72%
[2]
  ED50: 0.5 mg/kg
[6]
  minimal effective dose: 0.5 mg/kg
[3]
  ED (40 mm Hg): 20 mg/kg

## CSc1cc(C(O)CNC(C)CCc2ccccc2)ccc1O (stereo not drawn) [Example 32, 4-hydroxy-α-{[(1-methyl-3-phenylpropyl)amino]methyl}-3-methylthio)benzenemethanol acetate salt]
[4]
  inhibition at 50 µM: 81%
[1]; iv
  ED50: 0.1 mg/kg
[2]
  ED50: 0.5 mg/kg
[3]
  ED (40 mm Hg): 5 mg/kg

## COc1ccc(CCCC(C)NCC(O)c2ccc(O)c(SC)c2)cc1 (stereo not drawn) [Example 36, 4-hydroxy-α-<{[4-(4-methoxyphenyl)1-methylbutyl]amino}methyl>-3-(methylthio)benzenemethanol acetate salt]
[3]
  ED (40 mm Hg): > 50 mg/kg
[3]; 50.0 mg./kg. P.O.
  Actual reduction in blood pressure observed at the indicated dose: -17 mm Hg

## COc1cc(CCNCC(O)c2ccc(O)c(SC)c2)cc(OC)c1OC (stereo not drawn) [Example 51, 4-hydroxy-3-(methylthio)-α-<{[2-(3,4,5-trimethoxyphenyl)ethylamino}methyl>benzenemethanol hydrochloride]
[7]; anesthetized dog
  toxic dose in the ouabain test: 2.5×10^-5 Mg/kg.
[7]; below 2.5×10^-5 Mg/kg.
  activity in the ouabain test: inactive

## COc1ccc(CCC(C)NCC(O)c2ccc(SC)c(O)c2)cc1 (stereo not drawn) [Ref Cpd I, 3-hydroxy-α-<{[3-(4-methoxyphenyl)-1-methylpropyl]amino}methyl>-4-(methylthio)benzenemethanol acetate salt, reference compound]
[3]
  ED (40 mm Hg): > 50 mg/kg
  lower blood pressure: 20 mm
[3]; 50.0 mg./kg. P.O.
  Actual reduction in blood pressure observed at the indicated dose: -20 mm Hg

## COc1ccc(CCC(C)NCC(O)c2ccc(OC)c(SC)c2)cc1 (stereo not drawn) [Ref Cpd II, 4-methoxy-α-<{[3-(4-methoxyphenyl)-1-methylpropyl]amino}methyl>-3-(methylthio)benzenemethanol hydrochloride, reference compound]
[1]; iv
  ED50: 0.07 mg/kg
[3]
  ED (40 mm Hg): > 50 mg/kg
  lower blood pressure: 24 mm
[3]; 50.0 mg./kg. P.O.
  Actual reduction in blood pressure observed at the indicated dose: -24 mm Hg

— patent publication US4695589A, “Alpha-(aminoalkyl-4-hydroxy-3-(alkylthio)benzenemethanols” (Sterling Drug Inc., priority 1983, dated 1987)
